Data from PMC9582717 (The Journal of Biological Chemistry, 2022).

Target: T1, SmChiP (chitoporin) (Serratia marcescens, UniProt I7GPX7)
T1 sequence (I7GPX7 28-467): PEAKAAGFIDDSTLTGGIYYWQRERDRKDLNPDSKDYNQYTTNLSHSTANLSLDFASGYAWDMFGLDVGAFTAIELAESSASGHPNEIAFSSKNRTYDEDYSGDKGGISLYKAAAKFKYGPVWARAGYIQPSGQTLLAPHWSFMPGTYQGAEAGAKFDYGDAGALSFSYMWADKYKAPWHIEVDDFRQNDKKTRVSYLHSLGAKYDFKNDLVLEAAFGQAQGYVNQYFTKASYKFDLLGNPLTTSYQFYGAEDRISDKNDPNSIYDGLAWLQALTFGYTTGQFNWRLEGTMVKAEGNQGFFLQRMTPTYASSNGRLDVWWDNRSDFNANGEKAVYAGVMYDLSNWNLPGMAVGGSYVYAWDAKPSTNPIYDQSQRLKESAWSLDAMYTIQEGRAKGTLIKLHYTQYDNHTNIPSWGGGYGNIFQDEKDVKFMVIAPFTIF
Assay: isothermal titration calorimetry
Settings: detergent-solubilized protein; one-site binding model

Structure (SMILES): CC(=O)N[C@H]1[C@H](O[C@H]2[C@H](O)[C@@H](NC(C)=O)[C@H](O[C@H]3[C@H](O)[C@@H](NC(C)=O)C(O)O[C@@H]3CO)O[C@@H]2CO)O[C@H](CO)[C@@H](O[C@@H]2O[C@H](CO)[C@@H](O[C@@H]3O[C@H](CO)[C@@H](O[C@@H]4O[C@H](CO)[C@@H](O)[C@H](O)[C@H]4NC(C)=O)[C@H](O)[C@H]3NC(C)=O)[C@H](O)[C@H]2NC(C)=O)[C@@H]1O (some centres unmarked) [chitohexaose]
- Kd: 17 ± 0.6 µM

Structure (SMILES): CC(=O)N[C@H]1[C@H](O[C@H]2[C@H](O)[C@@H](NC(C)=O)[C@H](O[C@H]3[C@H](O)[C@@H](NC(C)=O)C(O)O[C@@H]3CO)O[C@@H]2CO)O[C@H](CO)[C@@H](O[C@@H]2O[C@H](CO)[C@@H](O[C@@H]3O[C@H](CO)[C@@H](O)[C@H](O)[C@H]3NC(C)=O)[C@H](O)[C@H]2NC(C)=O)[C@@H]1O (some centres unmarked) [chitopentaose]
- Kd: 23 ± 2 µM
